# Results published in publication PMC5903342 (Oxidative Medicine and Cellular Longevity, 2018).
# “Also recorded” adds a separate entry of the source.
# Experiments:
# [1] = system: S. enterica serovar typhimurium-tested strains; experiment: Cytotoxic effect in bacterial strains (CFU survival); type: cell-based, Salmonella enterica serovar typhimurium; conditions: presence and absence of exogenous metabolic activation (data not shown)
# Protocol: To determine the cytotoxic effect, after 60 min incubation, the assay mixtures were diluted in 0.9% NaCl (w/v) to obtain a suspension containing 2 × 10^2 cells/mL. A suitable aliquot (100 μL) of this suspension was plated on nutrient agar (0.8% bacto nutrient broth (Difco), 0.5% NaCl, and 1.5% agar). The plates were then incubated at 37°C for 24 h, and the colony-forming units (CFU) were counted to obtain the percentage of survival. All the experiments were done in triplicate and were repeated at least twice.
# [2] = system: HepG2 cells; experiment: Flow cytometry cell cycle analysis; type: cell-based, Human; conditions: 24 h
# Protocol: The cells (1 × 10^5) were washed in PBS solution and centrifuged at 400 ×g for 5 min, and after, the cells were suspended in DNA staining solution (0.3% Triton X-100 and 50 μg/mL propidium iodide (PI) in a 43 mM citrate buffer), as previously described. After 45 minutes of treatment with 50 μg/mL ribonuclease A (Sigma, EUA), the PI fluorescence was determined (10,000 events per sample) in a Gallios flow cytometer (Beckman Coulter, USA). Data were analyzed by the Summit v4.3 software. The experiments were done at least three times, and statistical analysis was performed by one-way ANOVA followed by a Tukey's post hoc test.
# [3] = system: Salmonella enterica serovar typhimurium TA100; experiment: Antimutagenicity assay (Salmonella/microsome), strain TA100 (co-, pre- and posttreatment); type: cell-based
# [4] = system: Salmonella enterica serovar typhimurium TA1535; experiment: Antimutagenicity assay (Salmonella/microsome), strain TA1535; type: cell-based; conditions: TA1535, cotreatment
# Text: Salmonella enterica serovar typhimurium (S. typhimurium) strains TA100, TA1535, TA104, and TA102 from the authors' laboratory stock were used as described by Maron and Ames in the antimutagenicity assay.
# We carried out the coexposure protocol of the antimutagenicity assay to investigate the potential of the compound to protect against alkylation-mediated genetic mutation in S. typhimurium TA100, TA102, TA104, and TA1535 strains according to Ajith and Soja. The test proceeded both in the absence and presence of a metabolic activation system (4% S9 mix, Aroclor preinduced, from MOLTOX Inc., USA). DMSO 1% served as the negative control. […] The mixtures were incubated in a shaker at 37°C (preincubation) under light protection. After a total of 60 min of cotreatment, the mixtures were added to and mixed with 2 mL top agar containing 0.05 mmol/L L-histidine and D-biotin for the S. typhimurium strains. Each of these was then spread on a minimal glucose agar (1.5% agar, Vogel-Bonner medium E, containing 2% glucose) plate. After the top agar solidified, the plates were incubated at 37°C for 60–72 h. Each tester strain was assayed in triplicate and repeated at least twice, and the number of revertant colonies was counted for each tester strain and treatment group. The counts of revertant colonies were obtained to build a dose-response curve and calculate the percentage of reduction.
# [5] = system: HepG2 cells; experiment: Cytoprotective assay of HepG2 cells (WST-1, coexposure with alkylating agent at LC50); type: cell-based, Human; conditions: 24 h coexposure with 20 μM MMS, AVA at 1.0 and 10.0 μM
# Protocol: After 24 h of coexposure, the culture medium was replaced by a 90 μL fresh culture medium and 10 μL WST-1 and incubated at 37°C and 5% CO2 for 2 h. The absorbance was then measured following the protocol as described before. The survival rates were determined in comparison to the negative control.
# [6] = TA100, cotreatment, +S9, CPA (150 μM), atorvastatin 20 μM
# [7] = TA100, cotreatment, +S9, CPA (150 μM), atorvastatin 100 μM
# [8] = TA100, cotreatment, +S9, CPA (150 μM), atorvastatin 200 μM
# [9] = TA100, cotreatment, +S9, CPA (150 μM), atorvastatin 1000 μM
# [10] = TA100, cotreatment, −S9, MMS (100 μM), atorvastatin 20 μM
# [11] = TA100, cotreatment, −S9, MMS (100 μM), atorvastatin 100 μM
# [12] = TA100, cotreatment, −S9, MMS (100 μM), atorvastatin 200 μM
# [13] = TA100, cotreatment, −S9, MMS (100 μM), atorvastatin 1000 μM
# [14] = TA100, posttreatment, +S9, CPA (150 μM), atorvastatin 20 μM
# [15] = TA100, posttreatment, +S9, CPA (150 μM), atorvastatin 200 μM
# [16] = TA100, posttreatment, +S9, CPA (150 μM), atorvastatin 1000 μM
# [17] = TA100, posttreatment, −S9, MMS (100 μM), atorvastatin 20 μM
# [18] = TA100, posttreatment, −S9, MMS (100 μM), atorvastatin 100 μM
# [19] = TA100, posttreatment, −S9, MMS (100 μM), atorvastatin 200 μM
# [20] = TA100, posttreatment, −S9, MMS (100 μM), atorvastatin 1000 μM
# [21] = TA100, pretreatment, +S9, CPA (150 μM), atorvastatin 20 μM
# [22] = TA100, pretreatment, +S9, CPA (150 μM), atorvastatin 100 μM
# [23] = TA100, pretreatment, +S9, CPA (150 μM), atorvastatin 200 μM
# [24] = TA100, pretreatment, +S9, CPA (150 μM), atorvastatin 1000 μM
# [25] = TA100, pretreatment, −S9, MMS (100 μM), atorvastatin 20 μM
# [26] = TA100, pretreatment, −S9, MMS (100 μM), atorvastatin 100 μM
# [27] = TA100, pretreatment, −S9, MMS (100 μM), atorvastatin 200 μM
# [28] = TA100, pretreatment, −S9, MMS (100 μM), atorvastatin 1000 μM
# [29] = +S9, CPA (150 μM), atorvastatin 20 μM
# [30] = +S9, CPA (150 μM), atorvastatin 100 μM
# [31] = +S9, CPA (150 μM), atorvastatin 200 μM
# [32] = +S9, CPA (150 μM), atorvastatin 1000 μM
# [33] = −S9, MMS (100 μM), atorvastatin 20 μM
# [34] = −S9, MMS (100 μM), atorvastatin 100 μM
# [35] = −S9, MMS (100 μM), atorvastatin 200 μM
# [36] = −S9, MMS (100 μM), atorvastatin 1000 μM
structure (smiles),measurement,setting,value
"CC(C)c1c(C(=O)Nc2ccccc2)c(-c2ccccc2)c(-c2ccc(F)cc2)n1CC[C@@H](O)C[C@@H](O)CC(=O)O [AVA, atorvastatin]",Cytotoxic effect to bacterial strains,[1],no cytotoxic effect
same,Cell cycle pattern,"[2]; 25 μM AVA alone, in comparison to the control",did not induce alterations
same,"Effect on G1, S and G2 phases",[2]; AVA and CPA cotreatment,did not affect
same,Effect on G1 and S phases,[2]; AVA and MMS cotreatment,did not affect
same,Number of cells in the G2 phase,[2]; AVA and MMS cotreatment,restored
same,sub-G1 percentage of cells,[2]; cotreatment 20 μM MMS + AVA 1 μM,12%
same,sub-G1 percentage of cells,[2]; cotreatment 20 μM MMS + AVA 10 μM,4%
same,sub-G1 percentage of cells,[2]; cotreatment 20 μM MMS + AVA 25 μM,2%
same,polyploid subpopulation,[2]; cotreatment AVA + 20 μM MMS,3-4%
same,sub-G1 percentage of cells,"[2]; cotreatment AVA + CPA, no dose dependence",3-4%
same,Cell cycle pattern,[2]; cotreatment with 25 μM AVA in MMS-exposed (20 μM) cells,restored the cell cycle pattern
same,% reduction,[3]; [6],2.65%
same,His+ (revertant colonies),[3]; [6],235 ± 22
same,% reduction,[3]; [7],6.19%
same,His+ (revertant colonies),[3]; [7],230 ± 31
same,% reduction,[3]; [8],11.50%
same,His+ (revertant colonies),[3]; [8],224 ± 15
same,% reduction,[3]; [9],17.70%
same,His+ (revertant colonies),[3]; [9],216 ± 25
same,% reduction,[3]; [10],7.14%
same,His+ (revertant colonies),[3]; [10],204 ± 18
same,% reduction,[3]; [11],12.5%
same,His+ (revertant colonies),[3]; [11],198 ± 22
same,% reduction,[3]; [12],19.64%
same,His+ (revertant colonies),[3]; [12],190 ± 13
same,% reduction,[3]; [13],23.21%
same,His+ (revertant colonies),[3]; [13],186 ± 14
same,Reduction of DNA injuries caused by MMS or CPA,"[3]; TA100, posttreatment",not able to reduce
same,% reduction,[3]; [14],12.04%
same,His+ (revertant colonies),[3]; [14],257 ± 5
same,% reduction,"[3]; TA100, posttreatment, +S9, CPA (150 μM), atorvastatin 100 μM",17.44%
same,% reduction,[3]; [15],18.49%
same,His+ (revertant colonies),[3]; [15],216 ± 8
same,% reduction,[3]; [16],21.48%
same,His+ (revertant colonies),[3]; [16],207 ± 23
same,% reduction,[3]; [17],5.69%
same,His+ (revertant colonies),[3]; [17],257 ± 26
same,% reduction,[3]; [18],11.86%
same,His+ (revertant colonies),[3]; [18],248 ± 23
same,% reduction,[3]; [19],20.10%
same,His+ (revertant colonies),[3]; [19],237 ± 22
same,% reduction,[3]; [20],23.00%
same,His+ (revertant colonies),[3]; [20],233 ± 26
same,% reduction,[3]; [21],79.4^∗ %
same,His+ (revertant colonies),[3]; [21],130 ± 30
same,% reduction,[3]; [22],81.6^∗ %
same,His+ (revertant colonies),[3]; [22],127 ± 19
same,% reduction,[3]; [23],92.59^∗ %
same,His+ (revertant colonies),[3]; [23],111 ± 9
same,% reduction,[3]; [24],97.92^∗ %
same,His+ (revertant colonies),[3]; [24],103 ± 2
same,Antimutagenic activity,"[3]; TA100, pretreatment, all concentrations, presence and absence of metabolic conditions",exerted antimutagenic activity
same,% reduction,[3]; [25],45.97^∗ %
same,His+ (revertant colonies),[3]; [25],171 ± 14
same,% reduction,[3]; [26],88.57^∗ %
same,His+ (revertant colonies),[3]; [26],117 ± 2
same,% reduction,[3]; [27],91.43^∗ %
same,His+ (revertant colonies),[3]; [27],113 ± 6
same,% reduction,[3]; [28],98.7^∗ %
same,His+ (revertant colonies),[3]; [28],103 ± 4
same,% reduction,[4]; [29],9.44%
same,His+ (revertant colonies),[4]; [29],53 ± 3
same,% reduction,[4]; [30],11.11%
same,His+ (revertant colonies),[4]; [30],52 ± 7
same,% reduction,[4]; [31],30.6%
same,His+ (revertant colonies),[4]; [31],45 ± 4
same,% reduction,"[4]; +S9, CPA (150 μM), atorvastatin 200 μM, listed as Atorvastatin",30.56^∗ %
same,% reduction,[4]; [32],42.2%
same,His+ (revertant colonies),[4]; [32],41 ± 8
same,% reduction,"[4]; +S9, CPA (150 μM), atorvastatin 1000 μM, listed as Atorvastatin",42.22^∗ %
same,% reduction,[4]; [33],45.65^∗ %
same,His+ (revertant colonies),[4]; [33],50 ± 4
same,% reduction,[4]; [34],67.39^∗ %
same,His+ (revertant colonies),[4]; [34],40 ± 5
same,% reduction,[4]; [35],86.95^∗ %
same,His+ (revertant colonies),[4]; [35],31 ± 2
same,% reduction,[4]; [36],91.30^∗ %
same,His+ (revertant colonies),[4]; [36],29 ± 3
same,Cytoprotective effect (survival of HepG2 coexposed to MMS),[5],significant protection; also recorded: significant cytoprotective effect
